# US7749539B2, “Polymeric formulations for drug delivery” (Efrat Biopolymers Ltd., priority 2000, dated 2010)
# Legend:
# [1] = In vitro release of drug combinations from liquid poly(sebacic-ricinoleic ester anhydride); assay type: physicochemical; conditions: for release in combination compared with the drug alone: 1:1 w/w mixture of cisplatin or carboplatin with paclitaxel
# Description: The combination of two or more anticancer agents in the polymer implant was investigated. The release of a combination of drugs from liquid formulations of poly(sebacic-ricinoleic ester anhydride) was studied using a 1:1 w/w mixture of cisplatin or carboplatin with paclitaxel.
# [2] = intravenous injection, cited from earlier work
# [3] = Release of peptides from liquid poly(SA-RA) 30:70; assay type: physicochemical; conditions: 200 mg in 800 mg poly(SA-RA) 30:70, phosphate buffer pH7.4, 37°C
# Experimental: Insulin powder (200 mg) was mixed in liquid poly(SA-RA) 30:70 (800 mg) at room temperature. The uniform formulation was added in buffer solution (100 mg in 50 ml phosphate buffer pH7.4 at 37° C.) and the release of insulin to the solution was determined by HPLC. A constant release of insulin for more than 30 days was obtained.
molecule,measurement,setting,value
N.N.O=C([O-])C1(C(=O)[O-])CCC1.[Pt+2] [carboplatin],release in combination compared with the drug alone,[1],slower
N.N.[Cl][Pt][Cl] [cisplatin],release in combination compared with the drug alone,[1],slower
CC(=O)O[C@H]1C(=O)[C@@]2(C)[C@H]([C@H](OC(=O)c3ccccc3)[C@]3(O)C[C@H](OC(=O)[C@H](O)[C@@H](NC(=O)c4ccccc4)c4ccccc4)C(C)=C1C3(C)C)[C@]1(OC(C)=O)CO[C@@H]1C[C@@H]2O [paclitaxel],release in combination compared with the drug alone,[1],slightly enhanced
same,maximum tolerated dose (MTD),[2]; female SPF C3H/HeNcrj mice,26 mg/kg
same,dose at which death due to toxicity was observed,[2]; mice,30 mg/kg
Insulin: Insulin powder mixed in liquid poly(SA-RA) 30:70,duration of constant release,[3],more than 30 days
rapamycine,release of co-incorporated drug from the device,[1]; incorporated along with paclitaxel or other anticancer agents,released constantly
